What all share (assay type): cell-based
In experiment [1] the test system is Human lung adenocarcinoma cell A549. Kind of experiment: CCK-8 cell proliferation assay, A549. To be noted: A549 cells, 72 hrs with drug, CCK-8, OD 450 nm. The protocol:
(§1) The effect of samples on the proliferation of human tumor cells in vitro was determined by CCK-8 cell proliferation assay.
(§2) The cells were assayed through a method including the following steps: • 1) The cells were digested, counted, and prepared into a cell suspension in a corresponding culture medium (Table 1) (5×10^4 cells/ml for CFPAC-1 and RPMI 8226, and 3.5×10^4 cells/ml for rest cells). The cell suspension was added to each well of a 96-well plate in 100 μl/well. • 2) Then the 96-well plate was incubated for 24 hrs in an incubator at 37° C. and 5% CO2. • 3) The drug was diluted with the culture medium to the required working concentration. 100 μl of the corresponding drug containing medium was added to each well.

Experiment [2] relates to Human hepatoma cell HepG2. In words: CCK-8 cell proliferation assay, HepG2. The settings on record: HepG2 cells, 72 hrs with drug, CCK-8, OD 450 nm. The procedure:
as §1, §2

The subject of experiment [3] is Human esophageal cancer cell TE-1. In words: CCK-8 cell proliferation assay, TE-1. To be noted: TE-1 cells, 72 hrs with drug, CCK-8, OD 450 nm. The protocol: as §1, §2
On the technique in general: Tetrazolium assays rely on reduction of a dye to a coloured formazan, in cell work by metabolically active cells.

In experiment [4] the test system is Human gastric cancer cell MKN45. In words: CCK-8 cell proliferation assay, MKN45. The settings on record: MKN-45 cells, 72 hrs with drug, CCK-8, OD 450 nm. The procedure:
as §1, §2

Experiment [5] relates to Human colon cancer cell HCT-116. Kind of experiment: CCK-8 cell proliferation assay, HCT-116. To be noted: HCT116 cells, 72 hrs with drug, CCK-8, OD 450 nm. The procedure:
as §1, §2

Experiment [6] has as its system Human multiple myeloma cell RPMI 8226. Kind of experiment: CCK-8 cell proliferation assay, RPMI 8226. The settings on record: RPMI8226 cells, 72 hrs with drug, CCK-8, OD 450 nm. The protocol:
as §1, §2

Experiment [7] relates to Human pancreatic cancer cell CFPAC-1. Kind of experiment: CCK-8 cell proliferation assay, CFPAC-1. The settings on record: CFPAC-1 cells, 72 hrs with drug, CCK-8, OD 450 nm. The protocol:
as §1, §2

SMILES strings stand for the structures.

What is called IC50 is the concentration that gives 50% inhibition.

As for `N#CN=C(NCCCCCN1CCN(C(=O)c2cccs2)CC1)Nc1cccnc1` [BSS-PC018, 2-cyano-1-(5-(1-(2-thienylformyl)piperazine-4-yl)pentyl)-3-(3-pyridinyl)guanidine], the concentration for half-maximal inhibition (IC50) in experiment [1] is 74 nM; in experiment [2], 77 nM; in experiment [3] it was 85 nM; in experiment [4], 60 nM; in experiment [5] it was 95 nM; in experiment [6], 28 nM. In experiment [7], this molecule came in with an IC50 of 35 nM.

For the molecule `N#CN=C(NCCCCCCC1CCN(C(=O)c2ccccc2)C1)Nc1ccncc1` (stereo not drawn) [BSS-PC054, 2-cyano-1-(6-((1-benzoyl)pyrrolidine-3-yl)hexyl)-3-(4-pyridinyl)guanidine], the IC50 in experiment [1] was 33 nM; in experiment [2] it was 57 nM; in experiment [3], 46 nM; in experiment [4], 49 nM; in experiment [5], 52 nM; in experiment [6] it was 30 nM. In experiment [7], the IC50 was found to be 39 nM.

As for `N#CN=C(NCCCCCN1CCN(C(=O)c2ccccc2)CC1)Nc1cccnc1` [BSS-PC019, 2-cyano-1-(5-((1-benzoyl)piperazine-4-yl)pentyl)-3-(3-pyridinyl)guanidine], the IC50 stood at 71 nM in experiment [1]; 83 nM in experiment [2]; 64 nM in experiment [3]; 52 nM in experiment [4]; 73 nM in experiment [5]; 38 nM in experiment [6]. The same molecule yielded an IC50 in experiment [7] of 46 nM.

With `N#CN=C(NCCCCCN1CCN(C(=O)c2[nH]ccc2F)CC1)Nc1ccncc1` [BSS-PC024, 2-cyano-1-(5-(1-(3-fluoro-2-pyrrolylformyl)piperazine-4-yl)pentyl)-3-(4-pyridinyl)guanidine], the IC50 in experiment [1] came to 53 nM; in experiment [2], 51 nM; in experiment [3] it was 49 nM; in experiment [4], 41 nM; in experiment [5] it was 50 nM; in experiment [6], 21 nM. The same molecule showed an IC50 in experiment [7] of 37 nM.

As for `N#CN=C(NCCCCCN1CCN(C(=O)c2cc3ccccc3[nH]2)CC1)Nc1ccncc1` [BSS-PC020, 2-cyano-1-(5-(1-(2-indolylformyl)piperazine-4-yl)pentyl)-3-(4-pyridinyl)guanidine], the IC50 was 61 nM in experiment [1]; 72 nM in experiment [2]; 93 nM in experiment [3]; 51 nM in experiment [4]; 85 nM in experiment [5]; 35 nM in experiment [6]. Further, half-maximal inhibition in experiment [7] (IC50) required 57 nM.

Consider `N#CN=C(NCCCCCN1CCN(C(=O)c2ccccc2)CC1)Nc1ccncc1` [BSS-PC003], for which the IC50 in experiment [1] amounted to 29 nM; in experiment [2], 49 nM; in experiment [3], 46 nM; in experiment [4], 50 nM; in experiment [5], 41 nM; in experiment [6] it was 19 nM. Besides, half-maximal inhibition in experiment [7] (IC50) required 26 nM.

For the molecule `N#CN=C(NCCCCCN1CCN(C(=O)c2sccc2F)CC1)Nc1ccncc1` [BSS-PC025, 2-cyano-1-(5-(1-(3-fluoro-2-thienylformyl)piperazine-4-yl)pentyl)-3-(4-pyridinyl)guanidine], the IC50 in experiment [1] amounted to 57 nM; in experiment [2] it was 82 nM; in experiment [3] it was 53 nM; in experiment [4], 64 nM; in experiment [5] it was 91 nM; in experiment [6], 43 nM. The molecule further displayed an IC50 in experiment [7] of 58 nM.

Consider `N#CN=C(NCCCCCCC1CCN(C(=O)c2cc3ccccc3o2)C1)Nc1ccncc1` (stereo not drawn) [BSS-PC072, 2-cyano-1-(6-(1-(2-benzofurylformyl)pyrrolidine-3-yl)hexyl)-3-(4-pyridinyl)guanidine], for which the IC50 in experiment [1] turned out to be 64 nM; in experiment [2] it was 98 nM; in experiment [3], 92 nM; in experiment [4] it was 43 nM; in experiment [5] it was 92 nM; in experiment [6], 41 nM. In addition, the IC50 in experiment [7] was found to be 47 nM.

As for `N#CN=C(NCCCCCC1CCN(C(=O)C2CCCO2)C1)Nc1ccncc1` (stereo not drawn) [BSS-PC036, 2-cyano-1-(5-(1-(2-tetrahydrofuranformyl)pyrrolidine-3-yl)pentyl)-3-(4-pyridinyl)guanidine], the IC50 in experiment [1] is 28 nM; in experiment [2], 90 nM; in experiment [3], 72 nM; in experiment [4], 36 nM; in experiment [5] it was 58 nM; in experiment [6], 25 nM. This molecule registered an IC50 in experiment [7] of 39 nM.

`N#CN=C(NCCCCCCC1CCN(C(=O)c2ccc[nH]2)C1)Nc1cccnc1` (stereo not drawn) [BSS-PC061, 2-cyano-1-(6-(1-(2-pyrrolylformyl)pyrrolidine-3-yl)hexyl)-3-(3-pyridinyl)guanidine]: the IC50 was found to be 57 nM in experiment [1]; 122 nM in experiment [2]; 103 nM in experiment [3]; 65 nM in experiment [4]; 87 nM in experiment [5]; 33 nM in experiment [6]. For the same molecule, inhibition in experiment [7] was half-maximal at 45 nM (IC50).

Take `COc1cccc(OC)c1C(=O)N1CCN(CCCCCNC(=NC#N)Nc2cccnc2)CC1` [BSS-PC027, 2-cyano-1-(5-(1-(2,6-dimethoxybenzoyl)piperazine-4-yl)pentyl)-3-(3-pyridinyl)guanidine]: the IC50 was 63 nM in experiment [1]; 69 nM in experiment [2]; 92 nM in experiment [3]; 47 nM in experiment [4]; 81 nM in experiment [5]; 40 nM in experiment [6]. In experiment [7], this molecule yielded an IC50 of 49 nM.

With `N#CN=C(NCCCCCCC1CCN(C(=O)c2ccco2)C1)Nc1cccnc1` (stereo not drawn) [BSS-PC062, 2-cyano-1-(6-(1-(furoyl)pyrrolidine-3-yl)hexyl)-3-(3-pyridinyl)guanidine], the IC50 in experiment [1] was 46 nM; in experiment [2], 58 nM; in experiment [3] it was 49 nM; in experiment [4], 39 nM; in experiment [5] it was 47 nM; in experiment [6] it was 23 nM. This molecule also registered an IC50 in experiment [7] of 34 nM.

As for `N#CN=C(NCCCCCN1CCN(C(=O)C2CCCN2)CC1)Nc1ccncc1` (stereo not drawn) [BSS-PC010, 2-cyano-1-(5-(1-(2-pyrrolidinylformyl)piperazine-4-yl)pentyl)-3-(4-pyridinyl)guanidine], the IC50 came out at 67 nM in experiment [1]; 61 nM in experiment [2]; 86 nM in experiment [3]; 53 nM in experiment [4]; 69 nM in experiment [5]; 39 nM in experiment [6]. The same molecule returned an IC50 in experiment [7] of 33 nM.

In the case of `N#CN=C(NCCCCCC1CCN(C(=O)c2cc3ccccc3[nH]2)C1)Nc1ccncc1` (stereo not drawn) [BSS-PC045, 2-cyano-1-(5-(1-(2-indolylformyl)pyrrolidine-3-yl)pentyl)-3-(4-pyridinyl)guanidine], the IC50 in experiment [1] is 79 nM; in experiment [2], 117 nM; in experiment [3], 90 nM; in experiment [4], 58 nM; in experiment [5], 86 nM; in experiment [6] it was 52 nM. The same molecule returned an IC50 in experiment [7] of 64 nM.

As to `N#CN=C(NCCCCCC1CCN(C(=O)c2sccc2F)C1)Nc1ccncc1` (stereo not drawn) [BSS-PC050, 2-cyano-1-(5-(1-(3-fluoro-2-thienylformyl)pyrrolidine-3-yl)pentyl)-3-(4-pyridinyl)guanidine], the IC50 in experiment [1] was found to be 39 nM; in experiment [2], 68 nM; in experiment [3] it was 52 nM; in experiment [4] it was 33 nM; in experiment [5] it was 87 nM; in experiment [6], 32 nM. The molecule also displayed an IC50 in experiment [7] of 41 nM.

With `COc1cccc(OC)c1C(=O)N1CCC(CCCCCNC(=NC#N)Nc2ccncc2)C1` (stereo not drawn) [BSS-PC031, 2-cyano-1-(5-(1-(2,6-dimethoxybenzoyl)pyrrolidine-3-yl)pentyl)-3-(4-pyridinyl)guanidine], the IC50 in experiment [1] came to 42 nM; in experiment [2], 109 nM; in experiment [3] it was 94 nM; in experiment [4], 37 nM; in experiment [5], 49 nM; in experiment [6], 23 nM. Moreover, the IC50 in experiment [7] came out at 27 nM.

For `N#CN=C(NCCCCCC1CCN(C(=O)C2CCCN2)C1)Nc1ccncc1` (stereo not drawn) [BSS-PC035, 2-cyano-1-(5-(1-(2-pyrrolidinylformyl)pyrrolidine-3-yl)pentyl)-3-(4-pyridinyl)guanidine], the IC50 in experiment [1] was 32 nM; in experiment [2] it was 86 nM; in experiment [3], 79 nM; in experiment [4], 41 nM; in experiment [5], 33 nM; in experiment [6], 27 nM. For the same molecule, the IC50 in experiment [7] is 16 nM.

For the molecule `N#CN=C(NCCCCCCC1CCN(C(=O)C2CCCS2)C1)Nc1cccnc1` (stereo not drawn) [BSS-PC063, 2-cyano-1-(6-(1-(2-tetrahydrothienylformyl)pyrrolidine-3-yl)hexyl)-3-(3-pyridinyl)guanidine], the IC50 in experiment [1] was 69 nM; in experiment [2], 90 nM; in experiment [3], 83 nM; in experiment [4], 62 nM; in experiment [5], 109 nM; in experiment [6] it was 40 nM. The IC50 in experiment [7] came out at 46 nM.
